# Assay results taken from patent US9102591B2, “Benzamides” (H. Lundbeck A/S, priority 2012, dated 2015).
# Target: P2X7 receptor (Homo sapiens (Human), UniProt Q99572)
# Assay: P2X7 FLIPR assay (BzATP-stimulated calcium fluorescence, antagonist IC50)
# Type: cell-based
# Method in brief: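 Cells expressing P2X7 receptor (human, rat or mouse), plated 24 hours earlier in low-serum medium, loaded with Fluo-4 NW dye (30 min 37° C, 30 min room temperature).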
# Chain of P2X7 receptor (Q99572 whole entry): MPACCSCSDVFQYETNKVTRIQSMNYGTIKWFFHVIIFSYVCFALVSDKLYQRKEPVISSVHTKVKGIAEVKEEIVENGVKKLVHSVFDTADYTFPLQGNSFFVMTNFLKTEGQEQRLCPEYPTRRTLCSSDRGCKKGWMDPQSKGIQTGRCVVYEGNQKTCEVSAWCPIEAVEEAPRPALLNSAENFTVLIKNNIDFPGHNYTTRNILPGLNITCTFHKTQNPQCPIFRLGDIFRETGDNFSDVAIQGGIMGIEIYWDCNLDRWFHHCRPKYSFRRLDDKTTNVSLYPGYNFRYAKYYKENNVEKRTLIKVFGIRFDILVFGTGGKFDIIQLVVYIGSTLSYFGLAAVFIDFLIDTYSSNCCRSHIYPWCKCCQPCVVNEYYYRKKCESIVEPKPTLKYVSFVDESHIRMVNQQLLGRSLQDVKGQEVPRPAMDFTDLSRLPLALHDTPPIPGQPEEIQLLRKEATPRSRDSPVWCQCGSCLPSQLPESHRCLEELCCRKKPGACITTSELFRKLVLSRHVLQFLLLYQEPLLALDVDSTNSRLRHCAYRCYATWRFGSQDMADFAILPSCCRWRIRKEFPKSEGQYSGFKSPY
row,SMILES,IC50 [nM]
1,"O=C(NCC(c1ccc(F)cc1)c1ccc(C(F)(F)F)nc1)c1c(F)cccc1Cl (single isomer, unassigned; (-)) [(−)2-chloro-6-fluoro-N-[2-(4-fluorophenyl)-2-[6-(trifluorome] [(−)2-chloro-6-fluoro-N-[2-(4-fluorophenyl)-2-[6-(trifluoromethyl)-3-pyridyl]ethyl]benzamide]",8.5
2,"O=C(NCC(c1cnc(C(F)(F)F)nc1)C1CCOCC1)c1c(F)cccc1Cl (single isomer, unassigned; (-)) [(−)2-chloro-6-fluoro-N-[2-tetrahydropyran-4-yl-2-[2-(trifluo] [(−)2-chloro-6-fluoro-N-[2-tetrahydropyran-4-yl-2-[2-(trifluoromethyl)pyrimidin-5-yl]ethyl]benzamide]",68
3,"Cc1ncc(C(CNC(=O)c2ccccc2Cl)C2CCOCC2)cn1 (single isomer, unassigned; (-)) [(−)2-chloro-N-[2-(2-methylpyrimidin-5-yl)-2-tetrahydropyran-] [(−)2-chloro-N-[2-(2-methylpyrimidin-5-yl)-2-tetrahydropyran-4-yl-ethyl]benzamide]",570
4,"Cc1ncc(C(CNC(=O)c2ccccc2Cl)CC2(C(F)(F)F)CC2)cn1 (single isomer, unassigned; (-)) [(−)2-chloro-N-[2-(2-methylpyrimidin-5-yl)-3-[1-(trifluoromet] [(−)2-chloro-N-[2-(2-methylpyrimidin-5-yl)-3-[1-(trifluoromethyl)cyclopropyl]propyl]benzamide]",650
5,"O=C(NCC(c1cnc(C(F)(F)F)nc1)C1CCC(F)(F)CC1)c1cccc(F)c1Cl (single isomer, unassigned; (-)) [(−)2-chloro-N-[2-(4,4-difluorocyclohexyl)-2-[2-(trifluoromet] [(−)2-chloro-N-[2-(4,4-difluorocyclohexyl)-2-[2-(trifluoromethyl)pyrimidin-5-yl]ethyl]-3-fluoro-benzamide]",44
6,"O=C(NCC(c1cnc(C(F)(F)F)nc1)C1CCC(F)(F)CC1)c1c(F)cccc1Cl (single isomer, unassigned; (-)) [(−)2-chloro-N-[2-(4,4-difluorocyclohexyl)-2-[2-(trifluoromet] [(−)2-chloro-N-[2-(4,4-difluorocyclohexyl)-2-[2-(trifluoromethyl)pyrimidin-5-yl]ethyl]-6-fluoro-benzamide]",61
7,"O=C(NCC(c1cnc(C(F)(F)F)nc1)C1CCC(F)(F)CC1)c1ccccc1Cl (single isomer, unassigned; (-)) [(−)2-chloro-N-[2-(4,4-difluorocyclohexyl)-2-[2-(trifluoromet] [(−)2-chloro-N-[2-(4,4-difluorocyclohexyl)-2-[2-(trifluoromethyl)pyrimidin-5-yl]ethyl]benzamide]",6.4
8,"O=C(NCC(c1ccc(F)cc1)c1cnc(C(F)(F)F)nc1)c1ccccc1Cl (single isomer, unassigned; (-)) [(−)2-chloro-N-[2-(4-fluorophenyl)-2-[2-(trifluoromethyl)pyri] [(−)2-chloro-N-[2-(4-fluorophenyl)-2-[2-(trifluoromethyl)pyrimidin-5-yl]ethyl]benzamide]",2
9,"O=C(NCC(c1ccc(F)cc1)c1ccc(C(F)(F)F)nc1)c1ccccc1Cl (single isomer, unassigned; (-)) [(−)2-chloro-N-[2-(4-fluorophenyl)-2-[6-(trifluoromethyl)-3-p] [(−)2-chloro-N-[2-(4-fluorophenyl)-2-[6-(trifluoromethyl)-3-pyridyl]ethyl]benzamide]",3.1
10,"O=C(NCC(c1cnc(C(F)(F)F)nc1)C1CCOCC1)c1ccccc1Cl (single isomer, unassigned; (-)) [(−)2-chloro-N-[2-tetrahydropyran-4-yl-2-[2-(trifluoromethyl)] [(−)2-chloro-N-[2-tetrahydropyran-4-yl-2-[2-(trifluoromethyl)pyrimidin-5-yl]ethyl]benzamide]",56
